In PMC12616683, “In Vivo Atlas of Neuroprotective Cyclic Dipeptides Derived from Food Gelatin Using Peptidomics and Feature-Based Molecular Networking” (Journal of Agricultural and Food Chemistry, 2025):
Square brackets hold non-standard residues; d marks the D form. Peptide text beside a SMILES is read from it. pGlu = O=C1CC[CH](C(=O)O)N1

Assay: FBMN analysis of short peptides in small intestine contents and serum after oral DHG
Settings: for Peptide signal (feature intensity) in the small intestine, 30 min / Peptide signal (feature intensity) in the small intestine, 60 min / Peptide signal (feature intensity) in the small intestine, 120 min / Peptide signal (feature intensity) in the small intestine, 240 min: small intestine contents, C57 mice, FBMN feature intensity, peptides smaller than 690 Da; for Peptide signal (feature intensity) in the small intestine, 30 min: 30 min after oral DHG; for Peptide signal (feature intensity) in the small intestine, 60 min: 60 min after oral DHG; for Peptide signal (feature intensity) in the small intestine, 120 min: 120 min after oral DHG; for Peptide signal (feature intensity) in the small intestine, 240 min: 240 min after oral DHG

Row | Peptide signal (feature intensity) in the small intestine, 30 min | Peptide signal (feature intensity) in the small intestine, 60 min | Peptide signal (feature intensity) in the small intestine, 120 min | Peptide signal (feature intensity) in the small intestine, 240 min | time detected in serum (FBMN) (serum, time points 0.5-4 h after oral DHG) [h] | SMILES
1 | 2.64E+06 | 2.44E+06 | 0.00E+00 | 0.00E+00 | ≥ 4 | CC(C)CC(NC(=O)C(N)Cc1ccccc1)C(=O)O (stereo not drawn) [Phe-Leu] (H-Phe-Leu-OH; configuration not given here)
2 | 2.16E+06 | 2.86E+06 | 5.41E+06 | 4.96E+06 |  | NC(=O)C[C@H](N)C(=O)N[C@@H](Cc1ccccc1)C(=O)O [Asn-Phe] (H-Asn-Phe-OH)
3 | 6.40E+05 | 1.66E+05 | 0.00E+00 | 0.00E+00 |  | Cc1cn([C@H]2C[C@H](O)[C@@H](CO)O2)c(=O)[nH]c1=O [Thymidine]
4 | 0.00E+00 | 4.20E+05 | 0.00E+00 | 9.49E+05 |  | CC(C)C[C@H](N)C(=O)N[C@@H](CCC(=O)O)C(=O)N[C@@H](CCCCN)C(=O)O [Leu-Glu-Lys] (H-Leu-Glu-Lys-OH)
5 | 1.17E+07 | 1.01E+07 | 0.00E+00 | 0.00E+00 |  | CC[C@H](C)[C@H](NC(=O)CN)C(=O)O [Gly-Ile] (H-Gly-Ile-OH)
6 | 5.68E+06 | 2.91E+06 | 7.39E+06 | 1.44E+07 |  | CC(C)C[C@H](NC(=O)[C@@H](N)CC(=O)O)C(=O)O [Asp-Leu] (H-Asp-Leu-OH)
7 | 0.00E+00 | 4.18E+07 | 0.00E+00 | 4.47E+07 |  | CC(C)C[C@H](NC(=O)CN)C(=O)O [Gly-Leu]
8 | 3.18E+06 | 3.36E+06 | 0.00E+00 | 0.00E+00 |  | CC[C@H](C)[C@H](N)C(=O)N[C@@H](CC(C)C)C(=O)O [Ile-Leu] (H-Ile-Leu-OH)
9 | 5.52E+06 | 1.24E+07 | 0.00E+00 | 0.00E+00 |  | CC(C)[C@H](N)C(=O)N[C@H](C(=O)O)C(C)C [Val-Val] (H-Val-Val-OH)
10 | 2.08E+06 | 7.49E+05 | 0.00E+00 | 0.00E+00 |  | CSCC[C@H](NC(=O)CN)C(=O)O [Gly-Met]

Further lines, the molecule ahead of its results:

Row | SMILES | Peptide signal (feature intensity) in the small intestine, 30 min | Peptide signal (feature intensity) in the small intestine, 60 min | Peptide signal (feature intensity) in the small intestine, 120 min | Peptide signal (feature intensity) in the small intestine, 240 min | time detected in serum (FBMN) (serum, time points 0.5-4 h after oral DHG) [h]
11 | CSCCC(NC(=O)C1CCC(=O)N1)C(=O)O (stereo not drawn) [PyroGlu-Met] ([pGlu]-Met-OH; configuration not given here) | 4.70E+06 | 5.95E+06 | 0.00E+00 | 0.00E+00 | 
12 | CC(C)CC(NC(=O)C(N)CO)C(=O)O (stereo not drawn) [Ser-Leu] (H-Ser-Leu-OH; configuration not given here) | 0.00E+00 | 1.15E+07 | 0.00E+00 | 1.59E+07 | 
13 | CC(C)C[C@H](N)C(=O)N[C@@H](CCC(=O)O)C(=O)O [Leu-Glu] (H-Leu-Glu-OH) | 7.88E+06 | 7.70E+06 | 0.00E+00 | 0.00E+00 | 
14 | CSCCC(N)C(=O)NC(CC(C)C)C(=O)O (stereo not drawn) [Met-Leu] (H-Met-Leu-OH; configuration not given here) | 0.00E+00 | 0.00E+00 | 4.03E+05 | 3.59E+05 | 
15 | CC(C)CC(NC(=O)C1CCCN1)C(=O)O (stereo not drawn) [Pro-Leu] (H-Pro-Leu-OH; configuration not given here) | 5.47E+07 | 1.43E+07 | 0.00E+00 | 0.00E+00 | 
16 | CC(C)[C@H](N)C(=O)N[C@@H](Cc1c[nH]c2ccccc12)C(=O)O [Val-Trp] (H-Val-Trp-OH) | 4.66E+05 | 4.22E+05 | 6.61E+05 | 1.64E+06 | 
17 | CC(C)[C@H](NC(=O)[C@@H]1CCC(=O)N1)C(=O)O [PyroGlu-Val] (HELM PEPTIDE1{[Glp].V}$$$$V2.0) | 0.00E+00 | 7.64E+06 | 0.00E+00 | 1.03E+07 | 
18 | N[C@@H](Cc1ccccc1)C(=O)N[C@@H](CCC(=O)O)C(=O)O [Phe-Glu] (H-Phe-Glu-OH) | 1.31E+07 | 3.77E+06 | 0.00E+00 | 0.00E+00 | 
19 | CC[C@H](C)[C@H](N)C(=O)N[C@@H](Cc1ccc(O)cc1)C(=O)O [Ile-Tyr] (H-Ile-Tyr-OH) | 4.20E+05 | 8.21E+05 | 0.00E+00 | 0.00E+00 | 
20 | O=C1CCC(C(=O)N2CCCC2C(=O)O)N1 (stereo not drawn) [PyroGlu-Pro] ([pGlu]-Pro-OH; configuration not given here) | 0.00E+00 | 1.75E+07 | 0.00E+00 | 1.91E+07 | 
21 | CC(C)CC1NC(=O)C2CC(O)CN2C1=O [cyclo(L-Leu-L-Hyp)] | 9.23E+06 | 0.00E+00 | 5.32E+06 | 2.54E+06 | 
22 | CCCC[C@H](NC(=O)[C@H](C)N)C(=O)O [L-Alanyl-L-norleucine] (HELM PEPTIDE1{A.[Nle]}$$$$V2.0) | 1.73E+05 | 0.00E+00 | 2.05E+05 | 1.49E+05 | 
23 | CCC(C)C(N)C(=O)N1CCCC1C(=O)O (stereo not drawn) [Ile-Pro] (H-Ile-Pro-OH; configuration not given here) | 1.26E+07 | 6.59E+06 | 1.48E+07 | 2.26E+07 | 
24 | CC(C)[C@H](NC(=O)CN)C(=O)O [Gly-Val] (H-Gly-Val-OH) | 0.00E+00 | 3.54E+06 | 0.00E+00 | 2.70E+06 | 
25 | CC[C@H](C)[C@H](N)C(=O)NCC(=O)N[C@H](C(=O)O)[C@@H](C)CC [Ile-Gly-Ile] (H-Ile-Gly-Ile-OH) | 0.00E+00 | 2.90E+06 | 1.40E+06 | 1.45E+06 | 
26 | NCC(=O)N[C@@H](Cc1ccc(O)cc1)C(=O)O [Gly-Tyr] (H-Gly-Tyr-OH) | 0.00E+00 | 5.39E+06 | 0.00E+00 | 2.06E+07 | 
27 | CC(C)C[C@H](NC(=O)CNC(=O)[C@@H](N)CC(C)C)C(=O)O [Leu-Gly-Leu] (H-Leu-Gly-Leu-OH) | 2.40E+06 | 6.61E+05 | 0.00E+00 | 4.40E+06 | 
28 | O=C1N[C@@H](Cc2ccccc2)C(=O)N2C[C@@H](O)C[C@@H]12 [cyclo(L-Phe-L-4-Hyp)] | 1.19E+07 | 0.00E+00 | 1.15E+07 | 6.80E+06 | 
29 | O=C1CNC(=O)C(Cc2ccccc2)N1 [cyclo(glycinyl-L-phenylalanine)] | 1.21E+06 | 0.00E+00 | 9.00E+05 | 4.18E+05 | 
